Patent US11021445B2, “Carboxylic acid derivative as AT2R receptor antagonist” (SHANDONG DANHONG PHARMACEUTICAL CO., LTD., priority 2017, dated 2021)

Legend:
CYP2D6 = target: T1, CYP2D6 (Homo sapiens, UniProt P10635); assay: Human liver microsome CYP inhibition experiment; type: in vitro ADME; conditions: pooled human liver microsomes; read-out: Cytochrome P450 isoenzyme IC50 2D6
T1 construct: Mixed human liver microsomes (pooled HLM, n≥50) were purchased from Corning Inc; tissue Corning Inc. or other qualified suppliers; host or cells: pooled human liver microsomes (n≥50)
Method: (§1) The research project used a specific probe substrate for each isoenzyme to evaluate the inhibitory effect of the test compound on human liver microsomal cytochrome P450 isoenzymes (CYPIA2. CYP2C9, CYP2C19, CYP2D6, and CYP3A4). Mixed human liver microsomes (pooled HLM, n≥50) were purchased from Corning Inc. (Steuben, N.Y., USA) or other qualified suppliers, and were stored in a refrigerator below −60° C. before use. The diluted series of to-be-tested compound working solutions were added to an incubation system containing cofactors of human liver microsomes, a probe substrate and a circulation system, and the methanol content was about 1% (v/v) of the final incubation system. A control containing no the to-be-tested compound and containing a solvent was used as a control for enzyme activity (100%). The concentration of the analyte in the sample was determined by liquid chromatography-tandem mass spectrometry (LC/MS/MS). The calculation was performed by using the average of the concentrations of the samples (a blank solvent, a positive control inhibitor, or the to-be-tested compound). Non-linear regression analysis was performed by using SigmaPlot (V.11) on the average percent activity of the compound to be tested to the concentration. The IC50 value was calculated by a three-parameter or four-parameter inflection logarithmic equation.

CYP2C9 = target: T2, CYP2C9 (Homo sapiens, UniProt P11712); assay: Human liver microsome CYP inhibition experiment; type: in vitro ADME; conditions: pooled human liver microsomes; read-out: Cytochrome P450 isoenzyme IC50 2C9
T2 construct: Mixed human liver microsomes (pooled HLM, n≥50) were purchased from Corning Inc; tissue Corning Inc. or other qualified suppliers; host or cells: pooled human liver microsomes (n≥50)
Method: as §1

CYP3A4 = target: T3, CYP3A4 (Homo sapiens, UniProt P08684); assay: Human liver microsome CYP inhibition experiment; type: in vitro ADME; conditions: pooled human liver microsomes; read-out: Cytochrome P450 isoenzyme IC50 3A4
T3 construct: Mixed human liver microsomes (pooled HLM, n≥50) were purchased from Corning Inc; tissue Corning Inc. or other qualified suppliers; host or cells: pooled human liver microsomes (n≥50)
Method: as §1

CYP2C19 = target: T4, CYP2C19 (Homo sapiens, UniProt P33261); assay: Human liver microsome CYP inhibition experiment; type: in vitro ADME; conditions: pooled human liver microsomes; read-out: Cytochrome P450 isoenzyme IC50 2C19
T4 construct: Mixed human liver microsomes (pooled HLM, n≥50) were purchased from Corning Inc; tissue Corning Inc. or other qualified suppliers; host or cells: pooled human liver microsomes (n≥50)
Method: as §1

CYP1A2 = target: T5, CYP1A2 (Homo sapiens, UniProt P05177); assay: Human liver microsome CYP inhibition experiment; type: in vitro ADME; conditions: pooled human liver microsomes; read-out: Cytochrome P450 isoenzyme IC50 CYP1A2
T5 construct: Mixed human liver microsomes (pooled HLM, n≥50) were purchased from Corning Inc; tissue Corning Inc. or other qualified suppliers; host or cells: pooled human liver microsomes (n≥50)
T5 sequence (P05177 1-516): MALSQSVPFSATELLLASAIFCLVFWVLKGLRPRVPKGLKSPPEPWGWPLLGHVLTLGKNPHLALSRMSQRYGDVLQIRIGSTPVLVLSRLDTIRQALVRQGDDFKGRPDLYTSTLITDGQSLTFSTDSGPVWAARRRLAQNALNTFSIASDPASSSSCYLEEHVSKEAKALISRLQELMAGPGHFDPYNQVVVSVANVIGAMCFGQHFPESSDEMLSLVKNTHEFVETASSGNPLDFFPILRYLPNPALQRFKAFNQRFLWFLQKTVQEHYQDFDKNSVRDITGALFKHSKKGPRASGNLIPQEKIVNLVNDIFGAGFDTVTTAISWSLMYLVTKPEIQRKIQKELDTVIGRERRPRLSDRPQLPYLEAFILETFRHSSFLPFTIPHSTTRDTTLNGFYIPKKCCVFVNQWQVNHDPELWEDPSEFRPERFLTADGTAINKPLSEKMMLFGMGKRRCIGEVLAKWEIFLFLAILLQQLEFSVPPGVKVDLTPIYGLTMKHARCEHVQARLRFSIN
Method: as §1

[1] = Plasma protein binding rate (PPB) test, equilibrium dialysis; type: in vitro ADME, Sprague-Dawley rats; conditions: Sprague-Dawley, rat, 37°C, read-out: Plasma Protein Binding (%) SD Rat Plasma (converted)
Method: In vitro protein binding rates of 0.2 μM, 2 μM, 10 μM of test compounds with Sprague-Dawley rats, beagle dogs, human plasma were determined by equilibrium dialysis.
The experiment will use a 96-well equilibrium dialysis plate (HTDialysis device) to determine the plasma protein binding rate of the to-be-tested compound and the control compounds.
Prior to the start of the experiment, the dialysis membrane was pretreated according to the instructions for use and the dialysis unit was assembled as required.
Blank plasma was taken from CD-1 mice, Sprague-Dawley rats, Beagle dogs, cynomolgus monkeys and humans (an anticoagulant is EDTA-K2, which is a commercial product purchased, or is collected and prepared by the Drug Evaluation Department of Wuxi AppTech, and is stored in a refrigerator below −60° C. before use). A certain volume of the to-be-tested compound or the control compound working solution was added to prepare plasma samples of the compound to be tested at a concentration of 0.2, 2, 10 μM and plasma samples of the control compound at a concentration of 2 μM (n=1). The organic phase content was ≤1%. First, a certain volume of a plasma sample containing the to-be-tested compound and the control compound was taken out into the sample receiving plate as a sample at zero time (T0 sample, n=3); secondly, a plasma sample containing the to-be-tested compound and the control compound was added to one side of the dialysis membrane (plasma end, n=3), and a certain volume of dialysis buffer (buffer end, n=3) was added to the other side of the dialysis membrane; then the dialysis plate was placed in a humidified incubator with 5% CO2 for incubation for 4 hours at 37±1° C.
After the incubation, a certain volume of the dialyzed buffer sample (F sample) and the dialyzed plasma sample (T sample) were transferred to the sample receiving plate, and all samples were subjected to protein precipitation for LC/MS/MS analysis. And the dissociation rate of the compound (% Unbound) was calculated by the following formula: % Unbound=100*[F]/[T], % Bound=100−% Unbound. Wherein, % Unbound is the dissociation rate of the compound; % Bound is the binding rate of the compound; [F] is the concentration of the compound at the buffer end of the dialysis plate; [T] is the concentration of the compound at the plasma end of the dialysis plate; and the experimental results are shown in Table 7.

T4 sequence (P33261 whole entry): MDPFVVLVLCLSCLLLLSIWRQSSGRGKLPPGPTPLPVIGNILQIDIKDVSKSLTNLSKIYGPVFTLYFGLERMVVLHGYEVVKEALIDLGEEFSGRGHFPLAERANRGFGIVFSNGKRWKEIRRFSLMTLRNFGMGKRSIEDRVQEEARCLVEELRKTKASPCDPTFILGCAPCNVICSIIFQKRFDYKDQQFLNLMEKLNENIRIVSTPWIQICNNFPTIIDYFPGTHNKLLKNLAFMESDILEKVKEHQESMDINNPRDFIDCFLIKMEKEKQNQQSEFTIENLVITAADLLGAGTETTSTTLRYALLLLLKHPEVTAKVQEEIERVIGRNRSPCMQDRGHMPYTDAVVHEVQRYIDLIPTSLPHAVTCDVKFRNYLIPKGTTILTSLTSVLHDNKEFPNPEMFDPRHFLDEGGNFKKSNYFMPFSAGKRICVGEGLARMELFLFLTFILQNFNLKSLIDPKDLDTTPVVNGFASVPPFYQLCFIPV
T1 sequence (P10635 whole entry): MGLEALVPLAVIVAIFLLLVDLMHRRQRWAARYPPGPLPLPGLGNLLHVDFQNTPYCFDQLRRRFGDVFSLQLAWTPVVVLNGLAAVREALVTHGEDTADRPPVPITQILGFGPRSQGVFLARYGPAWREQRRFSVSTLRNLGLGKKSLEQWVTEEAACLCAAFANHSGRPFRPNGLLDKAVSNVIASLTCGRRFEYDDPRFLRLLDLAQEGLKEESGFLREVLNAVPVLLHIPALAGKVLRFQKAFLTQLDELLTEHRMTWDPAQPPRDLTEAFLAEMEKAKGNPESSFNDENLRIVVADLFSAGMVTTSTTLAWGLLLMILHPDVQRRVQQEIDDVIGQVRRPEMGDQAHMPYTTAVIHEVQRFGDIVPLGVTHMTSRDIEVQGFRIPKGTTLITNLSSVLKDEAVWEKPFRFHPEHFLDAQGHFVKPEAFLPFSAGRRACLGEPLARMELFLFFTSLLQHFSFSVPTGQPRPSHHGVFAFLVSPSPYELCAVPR
T3 sequence (P08684 whole entry): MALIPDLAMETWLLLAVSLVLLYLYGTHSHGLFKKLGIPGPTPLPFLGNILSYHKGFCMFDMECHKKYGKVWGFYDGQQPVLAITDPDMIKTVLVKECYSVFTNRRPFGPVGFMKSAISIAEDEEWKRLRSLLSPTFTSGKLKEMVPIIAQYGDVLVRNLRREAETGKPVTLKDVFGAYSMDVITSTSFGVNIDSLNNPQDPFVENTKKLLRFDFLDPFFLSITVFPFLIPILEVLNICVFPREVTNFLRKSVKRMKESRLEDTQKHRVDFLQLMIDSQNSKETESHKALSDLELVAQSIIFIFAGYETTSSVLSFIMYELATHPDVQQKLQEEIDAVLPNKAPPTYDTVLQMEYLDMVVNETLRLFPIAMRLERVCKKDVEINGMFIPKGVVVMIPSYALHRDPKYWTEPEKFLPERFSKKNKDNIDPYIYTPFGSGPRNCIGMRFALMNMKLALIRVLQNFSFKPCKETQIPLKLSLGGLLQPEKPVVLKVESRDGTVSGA
T2 sequence (P11712 whole entry): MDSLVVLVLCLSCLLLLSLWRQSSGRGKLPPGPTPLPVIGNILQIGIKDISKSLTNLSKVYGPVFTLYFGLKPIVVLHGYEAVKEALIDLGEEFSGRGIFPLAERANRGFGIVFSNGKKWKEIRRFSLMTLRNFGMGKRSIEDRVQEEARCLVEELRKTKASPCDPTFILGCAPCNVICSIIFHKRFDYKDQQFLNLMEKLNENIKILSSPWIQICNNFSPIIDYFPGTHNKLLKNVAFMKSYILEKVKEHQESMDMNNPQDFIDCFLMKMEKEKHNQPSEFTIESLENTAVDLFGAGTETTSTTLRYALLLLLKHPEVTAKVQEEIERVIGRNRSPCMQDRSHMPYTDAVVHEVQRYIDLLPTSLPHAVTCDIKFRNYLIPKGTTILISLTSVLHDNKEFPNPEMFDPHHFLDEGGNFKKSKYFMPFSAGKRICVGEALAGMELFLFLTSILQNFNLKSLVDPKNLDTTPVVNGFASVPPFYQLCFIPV

SMILES	IC50 (CYP2D6) [µM]	IC50 (CYP2C9) [µM]	IC50 (CYP3A4) [µM]	IC50 (CYP2C19) [µM]	IC50 (CYP1A2) [µM]	fraction unbound at 4 h [1]
COc1ccc2c(c1OCc1ccccc1)C[C@@H](C(=O)O)N(C(=O)[C@@H](OC1(C)CCCC1)c1ccccc1)C2 [Compound 57]						0.002
COc1ccc2c(c1OCc1ccccc1)C[C@@H](C(=O)O)N(C(=O)[C@@H](OC1CC(F)(F)C1)c1ccccc1)C2 [Compound 51]	> 50	34.4	> 50	> 50	> 50	0.055
COc1ccc2c(c1OCc1ccccc1)C[C@@H](C(=O)O)N(C(=O)C(c1ccccc1)c1ccccc1)C2 [EMA-401, reference compound]	> 50	7.28	9.19	17.6	13	0.001

Results, then the compound that gave them:

IC50 (CYP2D6) [µM]	IC50 (CYP2C9) [µM]	IC50 (CYP3A4) [µM]	IC50 (CYP2C19) [µM]	IC50 (CYP1A2) [µM]	fraction unbound at 4 h [1]	SMILES
> 50	30.5	> 50	> 50	> 50	0.001	COc1ccc2c(c1OCc1ccccc1)C[C@@H](C(=O)O)N(C(=O)[C@@H](OC1CCCC1)c1ccccc1)C2 [Compound 37]
> 50	> 50	> 50	> 50	> 50	0.011	COc1ccc2c(c1OCc1ccccc1)C[C@@H](C(=O)O)N(C(=O)[C@@H](O[C@H]1CC[C@@H](O)CC1)c1ccccc1)C2 [Compound 63]
> 50	14.5	> 50	> 50	> 50		O=C(O)[C@@H]1Cc2c(ccc(Cl)c2OCc2ccccc2)CN1C(=O)[C@@H](OC1CCCC1)c1ccccc1 [Compound 107]
